# Numbered stars: 1 amine (or outer) side, 2 acyl side, 3 side chain; on linkers, the order of the positions; unused ones are H or OH. Bridge positions count the residues as written; N and C are the ends. Square brackets hold non-standard residues; d marks the D form. Peptide text beside a SMILES is read from it. Pro(4R-Bn) = O=C(O)[C@@H]1C[C@@H](Cc2ccccc2)CN1; Tpi = O=C(O)[C@@H]1Cc2c([nH]c3ccccc23)CN1; Dip = N[C@H](C(=O)O)C(c1ccccc1)c1ccccc1; 1Nal = N[C@@H](Cc1cccc2ccccc12)C(=O)O; TBMB = c1c(C[*:1])cc(C[*:3])cc1C[*:2]; 3Pal = N[C@@H](Cc1cccnc1)C(=O)O; 4Pal = N[C@@H](Cc1ccncc1)C(=O)O
# Test: Plasma stability profiling Method #1 (MALDI-TOF, 35% plasma), rat plasma
# Assay type: in vitro ADME
# Details: Table 12; method #1
# Method: A rapid plasma stability profiling assay was developed that employed mass spectrometric detection (MALDI-TOF, Voyager DE, Applied Biosystems) of the parent mass, until the time when the parent peptide mass was no longer observable. Specifically, 200 uM of peptide was incubated in the presence of 35% rat or human plasma (Sera labs, using citrate as anticoagulant) at 37 deg C., which was supplemented with 1×PBS (derived from a 10×PBS Stock, Sigma). At various time points (i.e. t=0, 3, 24 hrs, henceafter daily up to 10 days), 2 uL of sample was added to 18 uL of 30 mM ammonium bicarbonate in a 1:1 mixture of acetonitrile:H2O. Samples were frozen at −80 deg C. until the time of analysis. For mass spectrometric analysis that determines the approximate detection window of the peptide, the acetonitrile:H2O-diluted sample of a given time point was spotted directly (0.7 uL) onto the MALDI plate. Matrix (alpha-cyanocinnamic acid, Sigma, prepared as a saturated solution in 1:1 acetonitrile:water containing 0.1% trifluoroacetic acid) was layered over the sample (1 uL). At a similar laser intensity setting on the MALDI TOF, the time could then be determined until parent peptide was no longer detectable. It should be noted that this is a qualitative assay serves to detect relative changes in plasma stability.
row,"Observable in rat plasma, for days",SMILES
1,2 days,CC(=O)N[C@H]1CSCc2cc3cc(c2)CSC[C@H](NC(=O)[C@H](CCCNC(=N)N)NC(=O)[C@H](C)NC(=O)[C@@H]2CCCN2C(=O)[C@@H]2Cc4c([nH]c5ccccc45)CN2C(=O)[C@H](CO)NC1=O)C(=O)N[C@@H](CC(C)C)C(=O)N[C@@H](Cc1c[nH]cn1)C(=O)N[C@@H](CCC(N)=O)C(=O)N[C@@H](CC(=O)O)C(=O)N[C@@H](CC(C)C)C(=O)N[C@H](C(N)=O)CSC3 [Ac-(06-34-18) NorHar2] (Ac-CS[Tpi]PARCLHQDLC-NH2; linker 1-7-13 via TBMB)
2,2 days,CC(=O)N[C@H]1CSCc2cc3cc(c2)CSC[C@H](NC(=O)[C@H](CCCNC(=N)N)NC(=O)[C@H](C)NC(=O)[C@@H]2CCCN2C(=O)[C@H](Cc2cccnc2)NC(=O)[C@H](CO)NC1=O)C(=O)N[C@@H](CC(C)C)C(=O)N[C@@H](Cc1c[nH]cn1)C(=O)N[C@@H](CCC(N)=O)C(=O)N[C@@H](CC(=O)O)C(=O)N[C@@H](CC(C)C)C(=O)N[C@H](C(N)=O)CSC3 [Ac-(06-34-18) 3Pal2] (Ac-CS[3Pal]PARCLHQDLC-NH2; linker 1-7-13 via TBMB)
3,2 days,"CC(=O)N[C@H]1CSCc2cc3cc(c2)CSC[C@H](NC(=O)[C@H](CCCNC(=N)N)NC(=O)[C@H](C)NC(=O)[C@@H]2CCCN2C(=O)[C@H](C(c2ccccc2)c2ccccc2)NC(=O)[C@H](CO)NC1=O)C(=O)N[C@@H](CC(C)C)C(=O)N[C@@H](Cc1c[nH]cn1)C(=O)N[C@@H](CCC(N)=O)C(=O)N[C@@H](CC(=O)O)C(=O)N[C@@H](CC(C)C)C(=O)N[C@H](C(N)=O)CSC3 [Ac-(06-34-18) 3,3-DPA2] (Ac-CS[Dip]PARCLHQDLC-NH2; linker 1-7-13 via TBMB)"
4,2 days,CC(=O)N[C@H]1CSCc2cc3cc(c2)CSC[C@H](NC(=O)[C@H](CCCNC(=N)N)NC(=O)[C@H](C)NC(=O)[C@@H]2CCCN2C(=O)[C@H](Cc2ccncc2)NC(=O)[C@H](CO)NC1=O)C(=O)N[C@@H](CC(C)C)C(=O)N[C@@H](Cc1c[nH]cn1)C(=O)N[C@@H](CCC(N)=O)C(=O)N[C@@H](CC(=O)O)C(=O)N[C@@H](CC(C)C)C(=O)N[C@H](C(N)=O)CSC3 [Ac-(06-34-18) 4Pal2] (Ac-CS[4Pal]PARCLHQDLC-NH2; linker 1-7-13 via TBMB)
5,2 days,CC(=O)N[C@H]1CSCc2cc3cc(c2)CSC[C@H](NC(=O)[C@H](CCCNC(=N)N)NC(=O)[C@H](C)NC(=O)[C@@H]2CCCN2C(=O)[C@H](Cc2cccc4ccccc24)NC(=O)[C@H](CO)NC1=O)C(=O)N[C@@H](CC(C)C)C(=O)N[C@@H](Cc1c[nH]cn1)C(=O)N[C@@H](CCC(N)=O)C(=O)N[C@@H](CC(=O)O)C(=O)N[C@@H](CC(C)C)C(=O)N[C@H](C(N)=O)CSC3 [Ac-(06-34-18) 1NAL2] (Ac-CS[1Nal]PARCLHQDLC-NH2; linker 1-7-13 via TBMB)

# Same assay, conditions: Table 13; method #1
row,"Observable in rat plasma, for days",SMILES
1,2 days,CC(=O)N[C@H]1CSCc2cc3cc(c2)CSC[C@H](NC(=O)[C@H](CCCNC(=N)N)NC(=O)[C@H](C)NC(=O)[C@@H]2Cc4c([nH]c5ccccc45)CN2C(=O)[C@H](Cc2c[nH]c4ccccc24)NC(=O)[C@H](CO)NC1=O)C(=O)N[C@@H](CC(C)C)C(=O)N[C@@H](Cc1c[nH]cn1)C(=O)N[C@@H](CCC(N)=O)C(=O)N[C@@H](CC(=O)O)C(=O)N[C@@H](CC(C)C)C(=O)N[C@H](C(N)=O)CSC3 [Ac-(06-34-18) NorHar3] (Ac-CSW[Tpi]ARCLHQDLC-NH2; linker 1-7-13 via TBMB)
2,2 days,CC(=O)N[C@H]1CSCc2cc3cc(c2)CSC[C@H](NC(=O)[C@H](CCCNC(=N)N)NC(=O)[C@H](C)NC(=O)[C@@H]2C[C@@H](Cc4ccccc4)CN2C(=O)[C@H](Cc2c[nH]c4ccccc24)NC(=O)[C@H](CO)NC1=O)C(=O)N[C@@H](CC(C)C)C(=O)N[C@@H](Cc1c[nH]cn1)C(=O)N[C@@H](CCC(N)=O)C(=O)N[C@@H](CC(=O)O)C(=O)N[C@@H](CC(C)C)C(=O)N[C@H](C(N)=O)CSC3 [Ac-(06-34-18) 4Benzyl Pro3] (Ac-CSW[Pro(4R-Bn)]ARCLHQDLC-NH2; linker 1-7-13 via TBMB)

# Source: US10118947B2, “Modulation of structured polypeptide specificity” (BICYCLE THERAPEUTICS LIMITED, priority 2013, dated 2018)
